A word on the EC50: it is the concentration at which the effect is half-maximal.

Structures are written as SMILES. Where two headings read alike, the source gives them in different places.

For one assay, the system named is thymocytes. The assay can be described thus: Cytoprotection of mouse thymocytes from dexamethasone-induced apoptosis (PI/DiOC6 flow cytometry). Format: cell-based, C57Bl/6 mice. Particulars: Thymocyte. As to the method: Thymocytes were harvested from young C57Bl/6 mice and cultured at 37° C. in 5% CO2 in RPMI 1640 containing 10% FBS, 1% Penicillin/Streptomycin (Gibco BRL, Rockville, Md.). Thymocytes were plated at a density of 10^7 cells/mL and pre-incubated with 5-10 μM of test compounds, 1, 2, 4, and 11 (from 10 mM
[drawing 8] stock in DMSO) for 30 minutes before induction of apoptosis. Apoptosis was induced with 5 μM dexamethasone or by exposure to 6 Gy gamma radiation. After 6 hours, cell apoptosis was assayed by propidium iodide (PI) and 3,3′ dihexyloxacarbocyanine iodide (DiOC6) staining. The cells were removed from the plate and incubated for 30 minutes in medium with 40 nM DiOC6 and 5 μg/mL PI and then analyzed by flow cytometry in a FACS caliber (Beckton-Dickinson, San Jose, Calif.). Viable cells had high DiOC6 (FL-1) and low PI (FL-3), whereas apoptotic cells had low DiOC6 (FL-1) and […]. To evaluate the IC50s the thymocytes were pre-exposed to graded concentrations of selected compounds for 30 min and then apoptosis was induced with 5 μM dexamethasone. After 6 hours the cells were harvested and stained as above. The results are illustrated in FIGS. 1 and 2 IC50 Determination
The concentration (IC50) of each compound that inhibited dexamethasone-induced cell death by 50% was determined by nonlinear regression fitting of the data to a one-site model. Pseudo Hill slopes were determined by nonlinear regression fit of the data to a sigmoidal dose-response equation (variable slope): % viability=minimum %/viability+(maximum−minimum % viability)/[1+10(log IC50−X)^n], where X is the logarithm of inhibitor concentration, and n is the pseudo Hill slope and the maximum and minimum % viability were experimentally determined after dexamethasone exposure and drug treatment. IC50 values and 95% confidence intervals (CI) were derived from the sigmoid fits to the percent control transformed data shown using GraphPad Prism version 4.0b for Macintosh (GraphPad Software, San Diego, Calif.).
Background: Flow cytometry measures light scatter and fluorescence of single cells or particles in a stream.

The next assay has as its system cells. As to conditions: cells pre-incubated with compound, then exposed to γ-radiation; cited from earlier work.
The conditions of assay [1]: mice; cited from earlier work.
Setting [2] is: read-out: EC50, cytoprotective activity following in vitro dexamethasone treatment of mouse thymocytes.
[3] abbreviates: 5 μM dexamethasone, 30 min pre-incubation, 6 hours, 95% CI in parentheses, read-out: EC50, in vitro cytoprotection activity.

For `Br.Cc1ccc(C(=O)Cn2c3c(sc2=N)CCCC3)cc1` [Compound 1, 2-(2-imino-4,5,6,7-tetrahydro-benzothiazol-3-yl)-1-p-tolyl-ethanone hydrobromide], in the assay with thymocytes (setting [2]), the concentration giving a half-maximal response (EC50) was 4.4 µM. Moreover, in the assay on cells, the “apoptosis after γ-radiation” value is “decreased in apoptosis”. The “mortality after γ-radiation” value in assay [1] is given as “reduced mortality”.
As to `CON=C(C[n+]1cccc2ccccc21)c1ccc(C)cc1` [Compound 4, 1-(2-Methoxyimino-2-p-tolyl-ethyl)-quinolinium bromide], the EC50 in the assay on thymocytes (setting [3]) and in the assay on thymocytes (setting [2]) was 0.35 µM each time.
For the compound `Cc1ccc(C(=O)C[n+]2cccc3ccccc32)cc1` [Compound 5, 1-(2-Oxo-2-p-tolyl-ethyl)-quinolinium bromide], in the assay on thymocytes (setting [3]), the EC50 was above 10 µM.
On the same count and under the same terms, as for `CON=C(Cn1c(=O)ccc2ccccc21)c1ccc(C)cc1` [Compound 6, 1-(2-Methoxyimino-2-p-tolyl-ethyl)-1H-quinolin-2-one], the figure is above 10 µM; as for `Cc1ccc(C(=O)Cn2c(=O)ccc3ccccc32)cc1` [Compound 7, 1-(2-Oxo-2-p-tolyl-ethyl)-1H-quinolin-2-one], above 10 µM.
Same read-out and setting: as for `CON=C(C[n+]1ccccc1)c1ccc(C)cc1` [Compound 8, 1-(2-Methoxyimino-2-p-tolyl-ethyl)-pyridinium bromide], the figure is 5.1 µM; as for `Cc1ccc(C(=O)C[n+]2ccccc2)cc1` [Compound 9, 1-(2-Oxo-2-p-tolyl-ethyl)-pyridinium bromide], above 10 µM; as for `CON=C(C[n+]1cccc2ccccc21)c1ccc(N2CCCC2)cc1` [Compound 11, 1-[2-Methoxyimino-2-(4-pyrrolidin-1-yl-phenyl)-ethyl]-quinolinium bromide], 0.013 µM.
For `CON=C(Cn1c(=O)ccc2ccccc21)c1ccc(N2CCCC2)cc1` [Compound 12, 1-[2-Methoxyimino-2-(4-pyrrolidin-1-yl-phenyl)-ethyl]-1H-quinolin-2-one], the EC50 with thymocytes (setting [3]) is above 10 µM.
Still for that read-out and setting: as for `CON=C(C[n+]1ccccc1)c1ccc(N2CCCC2)cc1` [Compound 13, 1-[2-Methoxyimino-2-(4-pyrrolidin-1-yl-phenyl)-ethyl]-pyridinium bromide], the figure is 0.28 µM.

These data come from patent US7816352B2, “Apoptosis inhibitors” (The Regents of The University of California, priority 2005, dated 2010).
